Assay results from article PMC8286840, “Identifying SARS-CoV-2 antiviral compounds by screening for small molecule inhibitors of Nsp3 papain-like protease” (Biochemical Journal, 2021).
Where a name gives a salt, the structure may show the parent alone. Read-outs that look alike come from different tables or passages of the source.

Tests used:
[1] = biological target: T1, SARS-CoV-2 PLpro (nsp3 1564–1878) (Severe acute respiratory syndrome coronavirus 2, UniProt P0DTD1); assay: biochemical; parameters: FRET-quenched peptide (Pro3) cleavage by PLpro, 10 min pre-incubation, slope over 20 min, normalised to no-compound control; conditions: low concentration screen, read-out: % of control remaining
[2] = biological target: T1, SARS-CoV-2 PLpro (nsp3 1564–1878); assay: biochemical; parameters: FRET-quenched peptide (Pro3) cleavage by PLpro, 10 min pre-incubation, slope over 20 min, normalised to no-compound control; conditions: high concentration screen, read-out: % of control remaining

In the case of `COc1ccc2cc(OCC3(C(=O)O)CN(C(=O)c4ccc(F)cc4)C3)ccc2c1` [PF-04418948], the remaining activity at 1.25 µM ([1]; Well no.=7197) is reported as 89.6% and the remaining activity at 3.75 µM ([2]; Well no.=7197) is reported as 87.9%.
For `COc1cc2nc(N3CCN(C(=O)C4COc5ccccc5O4)CC3)nc(N)c2cc1OC` (stereo not shown) [Doxazosin mesylate], the remaining activity at 1.25 µM ([1]; Well no.=730) was 98.2% and the remaining activity at 3.75 µM ([2]; Well no.=730) was 93.7%.
Work on `CCN(CCCc1ccccc1)CCCc1ccccc1` [Alverine Citrate] yielded a remaining activity at 1.25 µM ([1]; Well no.=5277) of 91.4% and a remaining activity at 3.75 µM ([2]; Well no.=5277) of 91.3%.
Compound `NCCCP(=O)(O)O` [3-Aminopropylphosphonic acid] has a remaining activity at 1.25 µM ([1]; Well no.=357) of 90.6% and a remaining activity at 3.75 µM ([2]; Well no.=357) of 93.7%.
Compound `O=C1N=C(NCc2cccs2)S/C1=C\c1ccc2ncccc2c1` [Cdk1 Inhibitor IV, RO-3306] has a remaining activity at 1.25 µM ([1]; Well no.=2347) of 103% and a remaining activity at 3.75 µM ([2]; Well no.=2347) of 104%.
In the case of `CC(C)c1cc(-c2ccc(F)c3ccccc23)nc(N)n1` [RS 127445], the remaining activity at 1.25 µM ([1]; Well no.=8477) is reported as 107% and the remaining activity at 3.75 µM ([2]; Well no.=8477) is reported as 105%.
With `CC1=C(/C=C/C(C)=C/C=C/C(C)=C\C(=O)O)C(C)(C)CCC1` [13-cis Retinoic acid] the remaining activity at 1.25 µM ([1]; Well no.=3134) was 98.4%, the remaining activity at 1.25 µM ([1]; Well no.=4430) was 95.1% and the remaining activity at 3.75 µM ([2]; Well no.=3134) was 98.9%. It also gave a remaining activity at 3.75 µM ([2]; Well no.=4430) of 96%.
In the case of `COc1cc2/c(=N/c3ccc(Br)cc3F)nc[nH]c2cc1OCC1CCN(C)CC1` [Vandetanib], the remaining activity at 1.25 µM ([1]; Well no.=2799) is reported as 101% and the remaining activity at 3.75 µM ([2]; Well no.=2799) is reported as 101%.
In the case of `CC(C)(C)NCC(O)COc1cccc2c1CCC(=O)N2` (stereo not shown) [Carteolol (hydrochloride)], the remaining activity at 1.25 µM ([1]; Well no.=7623) is reported as 101% and the remaining activity at 3.75 µM ([2]; Well no.=7623) is reported as 97.2%.
`CN(C)CCc1c[nH]c2ccc(C[C@H]3COC(=O)N3)cc12` [Zolmitriptan] showed a remaining activity at 1.25 µM ([1]; Well no.=1885) of 98%, a remaining activity at 1.25 µM ([1]; Well no.=6507) of 98.3% and a remaining activity at 3.75 µM ([2]; Well no.=1885) of 97.6%. It also gave a remaining activity at 3.75 µM ([2]; Well no.=6507) of 98.2%.
Compound `C[C@@H]1[C@H](O)[C@@H](C)/C=C/C=C/C=C/C=C/C=C/C=C/C=C/[C@H](O[C@@H]2O[C@H](C)[C@@H](O)[C@H](N)[C@@H]2O)C[C@@H]2O[C@](O)(C[C@@H](O)C[C@@H](O)[C@H](O)CC[C@@H](O)C[C@@H](O)CC(=O)O[C@H]1C)C[C@H](O)[C@H]2C(=O)O` [Amphotericin B] has a remaining activity at 1.25 µM ([1]; Well no.=3470) of 101% and a remaining activity at 3.75 µM ([2]; Well no.=3470) of 98.9%.
In the case of `CC1(C)O[C@H]2CC(=O)OC[C@]23[C@H]2CC[C@@]4(C)[C@H](c5ccoc5)OC(=O)[C@H]5O[C@]54[C@]2(C)C(=O)C[C@@H]13` [Limonin], the remaining activity at 1.25 µM ([1]; Well no.=3655) is reported as 99.2% and the remaining activity at 3.75 µM ([2]; Well no.=3655) is reported as 102%.
Work on `C[N+]1(C)CCO[C@@](O)(c2ccc(-c3ccc([C@@]4(O)C[N+](C)(C)CCO4)cc3)cc2)C1` [Hemicholinium-3] yielded a remaining activity at 1.25 µM ([1]; Well no.=474) of 97.1% and a remaining activity at 3.75 µM ([2]; Well no.=474) of 95.2%.
`CN(C)c1ccc(O)c2c1C[C@H]1C[C@H]3[C@H](N(C)C)C(O)=C(C(N)=O)C(=O)[C@@]3(O)C(O)=C1C2=O` [Minocycline hydrochloride] showed a remaining activity at 1.25 µM ([1]; Well no.=797) of 104% and a remaining activity at 3.75 µM ([2]; Well no.=797) of 102%.
Work on `Cn1cnc(N)c2ncnc1-2` [3-Methyladenine] yielded a remaining activity at 1.25 µM ([1]; Well no.=5079) of 104%, a remaining activity at 1.25 µM ([1]; Well no.=7447) of 103% and a remaining activity at 3.75 µM ([2]; Well no.=7447) of 106%.
In the case of `COc1cc2nccc(Oc3ccc(NC(=O)Nc4ccc(F)cc4F)c(F)c3)c2cc1OC` [N-(2,4-Difluorophenyl)-N'-[4-[(6,7-dimethoxy-4-quinolinyl)oxy]-2-fluorophenyl]urea], the remaining activity at 1.25 µM ([1]; Well no.=2572) is reported as 92% and the remaining activity at 3.75 µM ([2]; Well no.=2572) is reported as 98.1%.
Compound `Nc1nc(F)nc2c1ncn2[C@@H]1O[C@H](CO)[C@@H](O)[C@@H]1O` [Fludarabine] has a remaining activity at 1.25 µM ([1]; Well no.=7962) of 89.2% and a remaining activity at 3.75 µM ([2]; Well no.=7962) of 88.2%.
Compound `C=C[C@H]1CN2CC[C@H]1C[C@@H]2[C@@H](O)c1ccnc2ccccc12` [(+)-Cinchonine] has a remaining activity at 1.25 µM ([1]; Well no.=3198) of 109% and a remaining activity at 3.75 µM ([2]; Well no.=3198) of 107%.
`c1ccc2c(Cc3c[nH]c4ccccc34)c[nH]c2c1` [Diindolylmethane] gave a remaining activity at 1.25 µM ([1]; Well no.=3516) of 102%, a remaining activity at 1.25 µM ([1]; Well no.=4509) of 88.9% and a remaining activity at 3.75 µM ([2]; Well no.=3516) of 104%. The remaining activity at 3.75 µM ([2]; Well no.=4509) was 92.4%.
Compound `CN(C)CCC=C1c2ccccc2C=Cc2ccccc21` [Cyclobenzaprine (hydrochloride)] has a remaining activity at 1.25 µM ([1]; Well no.=6284) of 106% and a remaining activity at 3.75 µM ([2]; Well no.=6284) of 105%.
Work on `CC(O)C(O)C1CNc2nc(N)[nH]c(=O)c2N1` [(6R)-5,6,7,8-Tetrahydro-L-biopterin hydrochloride] yielded a remaining activity at 1.25 µM ([1]; Well no.=1383) of 101% and a remaining activity at 3.75 µM ([2]; Well no.=1383) of 102%.
`CCCCS(=N)(=O)CCC(N)C(=O)O` (racemic) [DL-Buthionine-[S,R]-sulfoximine] was tested, and the remaining activity at 1.25 µM ([1]; Well no.=363) was 96.1% and the remaining activity at 3.75 µM ([2]; Well no.=363) was 93.8%.
In the case of `CN1Cc2c(ccc3c2OCO3)[C@@H]2[C@H]1c1cc3c(cc1C[C@@H]2O)OCO3` [(+)-Chelidonine], the remaining activity at 1.25 µM ([1]; Well no.=3439) is reported as 95.5% and the remaining activity at 3.75 µM ([2]; Well no.=3439) is reported as 97.2%.
`NC[C@H](O)c1ccc(O)c(O)c1` [Norepinephrine] gave a remaining activity at 1.25 µM ([1]; Well no.=7015) of 106% and a remaining activity at 3.75 µM ([2]; Well no.=7015) of 103%.
`S=C(NC1CCCCC1)N1CCC(c2cnc[nH]2)CC1` [Thioperamide maleate] showed a remaining activity at 1.25 µM ([1]; Well no.=1234) of 102% and a remaining activity at 3.75 µM ([2]; Well no.=1234) of 104%.
`O=C1NC(=O)C(Cc2ccc3cc(OCc4ccccc4F)ccc3c2)S1` (stereo not shown) [5-({6-[(2-fluorobenzyl)oxy]-2-naphthyl}methyl)-1,3-thiazolidine-2,4-dione] gave a remaining activity at 1.25 µM ([1]; Well no.=5872) of 104% and a remaining activity at 3.75 µM ([2]; Well no.=5872) of 97.8%.
For `C=C[C@]1(C)C[C@@H](OC(=O)CO)[C@]2(C)[C@H](C)CC[C@]3(CCC(=O)[C@H]32)[C@@H](C)[C@@H]1O` [(3aR,4R,5R,7S,8S,9R,9aS,12R)-8-hydroxy-4,7,9,12-tetramethyl-3-oxo-7-vinyldecahydro-4,9a-propanocyclopenta[8]annulen-5-yl 2-hydroxyacetate], the remaining activity at 1.25 µM ([1]; Well no.=5764) was 97.1% and the remaining activity at 3.75 µM ([2]; Well no.=5764) was 97.7%.
`NCCNc1ncc(C(N)=O)c(Nc2cccc(C(F)(F)F)c2)n1` [Syk Inhibitor II] was tested, and the remaining activity at 1.25 µM ([1]; Well no.=2597) was 99.7% and the remaining activity at 3.75 µM ([2]; Well no.=2597) was 101%.
Work on `O=C(CCN1CCN(C(=O)OCc2cc(Cl)cc(Cl)c2)CC1)c1ccc2[nH]c(=O)oc2c1` [PF-8380] yielded a remaining activity at 1.25 µM ([1]; Well no.=7798) of 104% and a remaining activity at 3.75 µM ([2]; Well no.=7798) of 98.3%.
`Cc1cc(C=C2C(=O)C=CC2=O)cc(C)c1O` [TX-1918] showed a remaining activity at 1.25 µM ([1]; Well no.=2677) of 96.7% and a remaining activity at 3.75 µM ([2]; Well no.=2677) of 98.1%.
For `NC(N)=Nc1nc(CSCC/C(N)=N/S(N)(=O)=O)cs1` [FAMOTIDINE], the remaining activity at 1.25 µM ([1]; Well no.=471) was 103%, the remaining activity at 1.25 µM ([1]; Well no.=1740) was 101% and the remaining activity at 1.25 µM ([1]; Well no.=6622) was 104%. The remaining activity at 3.75 µM ([2]; Well no.=471) was 104%, the remaining activity at 3.75 µM ([2]; Well no.=1740) was 101% and the remaining activity at 3.75 µM ([2]; Well no.=6622) was 106%.
